From US8367659B2, “Oxazinyl isoflavonoid compounds, medicaments and use” (Marshall Edwards, Inc., priority 2007, dated 2013)

What was measured:
[1] = tested on: HPAC; assay: Anti-cancer activity, HPAC pancreatic cancer cells (MTT); type: cell-based; conditions: Homo sapiens, 120 h, 5 days
[2] = tested on: NO synthesis in RAW 264.7 murine macrophages; assay: LPS-induced NO synthesis in RAW 264.7 murine macrophages (Griess); type: cell-based, mouse; conditions: 10 μM; relative to vehicle alone; FIG. 6
Experimental: The mouse macrophage cell line RAW 264.7 was cultured in DMEM supplemented with foetal calf serum (FCS), […] glutamine and 50 U/ml penicillin/streptomycin. Cells were treated with either test compound (in 0.025% DMSO) or vehicle alone, and added one hour before 50 ng/ml LPS. After incubation for 24 h, culture media was collected for PGE2 or TXB2 measurement by ELISA (Cayman Chemical), and TNFα measurement using an ELISA (Becton Dickinson). Nitrite concentration is a quantitative indicator of NO production and was determined by the Griess Reaction. Briefly, 100 μL of Griess reagent was added to 50 μL of each supernatant in duplicate. The absorbance at 550 nm was measured (Molecular Devices, SpectraMax 250 microplate spectrophotometer, CA, USA), and nitrite concentrations were determined against a standard curve of sodium nitrite. The percentage nitrite inhibition was calculated as: [100−(nitrite concentration of sample/nitrite of vehicle control LPS cells)×100]. Results Test compounds were examined a concentration of 10 μM. […] Consequently, to assess the effect of test compounds on various analytes, cell viability was taken into consideration with the use of the formula: Actual effect of test compound=measured effect−(effect on cell viability×measured effect)

[3] = tested on: MM200; assay: Anti-cancer activity, MM200 melanoma cells (MTT); type: cell-based; conditions: for IC50: 120 h, 5 days, MTT
[4] = tested on: CP70; assay: Anti-cancer activity, CP70 ovarian cancer cells (MTT); type: cell-based; conditions: 120 h, 5 days
[5] = tested on: Rabbit kidney (RK-13) cells; assay: Toxicity to normal cells, rabbit kidney (RK-13) cells; type: cell-based; conditions: Oryctolagus cuniculus, normal, non-transformed cells, read-out: IC50 μM, RK Rabbit Kidney
Experimental: (§1) IC50 values were determined for each cell line. Cells were seeded in 96-well plates at an appropriate cell density as determined from growth kinetics analysis and cultured for 5 days in the absence and presence of the test compounds. Cell proliferation was assessed after the addition of 20 μl of 3-4,5 dimethylthiazol-2,5-diphenyl tetrazolium bromide (MTT, 2.5 mg/ml in PBS, Sigma) for 3-4 hrs at 37° C. according to manufacturer's instructions. IC50 values were calculated from semi-log plots of % of control proliferation on the y-axis against log dose on the x-axis.
(§2) The neonatal foreskin fibroblasts (NFF) were a gift from Dr. Peter Parsons (Queensland Institute of Medical Research). Rabbit kidney (RK-13) cells were obtained from Miller Whalley (Macquarie University). Both cell lines were cultured in RPMI supplemented with 10% FCS(CSL, Australia), penicillin (100 U/ml), streptomycin ([…]), L-glutamine (2 mM) and sodium bicarbonate (1.2 g/L), and cultured at 37° C. in a humidified atmosphere of 5% CO2. IC50 values were determined as described above.

[6] = Free radical scavenging with DPPH; conditions: DPPH, 20 minutes, absorbance 517 nm; Table 4; read-out: Free radical scavenging ability EC50
Experimental: The antioxidant (free radical trapping) activity of test compounds was assessed using the stable free radical compound 2,2-diphenyl-1-picrylhydrazyl (DPPH). A stock solution of DPPH was prepared at a concentration of […] in ethanol and mixed for 10 minutes prior to use. Test compounds at a concentration of 100 μM were reacted with DPPH for, 20 minutes, alter which time the absorbance at 517 nm was determined. Initial screening of was done at 100 μM. The change in absorbance at 517 nm was compared to a reagent blank (DPPH with ethanol alone). […] The IC50 values were estimated as the concentration of test compound that caused a 0.6 change in absorbance (with 1.2 absorbance units representing total scavenging of the DPPH radical).
The antioxidant (free radical trapping) activity of test compounds was assessed using the stable free radical compound 2,2-diphenyl-1-picrylhydrazyl (DPPH). A stock solution of DPPH was prepared […] in ethanol and mixed for 10 minutes prior to use. Initial screening of test compound at a concentration of 100 μM was reacted with DPPH for 20 minutes, after which time the absorbance at 517 nm was determined. The change in absorbance was compared to a reagent blank (DPPH with ethanol alone). […] The IC50 value was estimated as the concentration of test compound that causes a 0.6 change in absorbance (with 1.2 absorbance units representing total scavenging of the DPPH radical).

[7] = tested on: neonatal foreskin fibroblasts (NFF); assay: Toxicity to normal cells, neonatal foreskin fibroblasts; type: cell-based; conditions: Fibroblast; normal, non-transformed cells; read-out: IC50 μM, NFF Fibroblast
Experimental: as §1, §2

[8] = tested on: cancer cell lines; assay: Anti-cancer activity, cancer cell lines tested as a group (MTT); type: cell-based; conditions: CP70, HPAC and MM200
[9] = tested on: TXB2 synthesis in RAW 264.7 murine macrophages; assay: LPS-induced TXB2 synthesis in RAW 264.7 murine macrophages; type: cell-based, mouse; conditions: 10 μM; relative to vehicle alone; FIG. 4
Experimental: (§3) The mouse macrophage cell line RAW 264.7 was cultured in DMEM supplemented with foetal calf serum (FCS), […] glutamine and 50 U/ml penicillin/streptomycin. Cells were treated with either test compound (in 0.025% DMSO) or vehicle alone, and added one hour before 50 ng/ml LPS. After incubation for 24 h, culture media was collected for PGE2 or TXB2 measurement by ELISA (Cayman Chemical), and TNFα measurement using an ELISA (Becton Dickinson). Test compounds were examined a concentration of 10 μM. […] Consequently, to assess the effect of test compounds on various analytes, cell viability was taken into consideration with the use of the formula: Actual effect of test compound=measured effect−(effect on cell viability×measured effect)

[10] = tested on: PGE2 synthesis in RAW 264.7 murine macrophages; assay: LPS-induced PGE2 synthesis in RAW 264.7 murine macrophages; type: cell-based, mouse; conditions: 10 μM; relative to vehicle alone; FIG. 3
Experimental: as §3

[11] = molecular target: T1, GAL4-PPARγ fusion protein (Homo sapiens, UniProt P37231); assay: PPARγ activity in transfected HEK293 cells (beta-lactamase reporter); type: cell-based; conditions: FIG. 13: 1 μM
T1 construct: host or cells: HEK293 (human embryonic kidney), stably transfected
Experimental: Human HEK293 cells, stably transfected with the PPARγ ligand binding domain fused with the DNA binding domain of the GAL4 protein (GAL4-PPARγ fusion protein), produce beta-lactamase when incubated with PPARγ ligands. Transfected human kidney embryonic cells (Invitrogen Inc., Carlsbad, Calif.) were seeded onto matrigel in 96-well plates and allowed to attach overnight. The following day, vehicle alone (DMSO) or test compound at 1, 5 and 10 μM was added at varying concentrations to cells and incubated for 16-18 hours. Cells were then loaded with a FRET-based fluorescent substrate to assess beta-lactamase activity. Cells were protected from light, and incubated at room temperature for 2 h. Plates were read on a fluorescence plate reader with an excitation wavelength of 409 nm and emission wavelengths of 460 nm and 530 nm. Results were expressed as a ratio of these two wavelengths after the background (cell-free control wells) had been subtracted. PPARγ activity was thus determined by measuring beta-lactamase activity as assessed by a fluorescent product to substrate ratio.

[12] = tested on: human umbilical vein smooth muscle cells (HUVSMC); assay: Proliferation of human umbilical vein smooth muscle cells (MTT); type: cell-based; conditions: 10 μM; 10% FCS, 5 days; FIG. 8
Experimental: The effect of test compounds on human umbilical vein smooth muscle cells (HUVSMC) was examined. Cells were seeded into 96 well plates at a low seeding rate of 1.6×10^3 cells per well, and allowed to attach for 24 hours. The cells were then washed twice with medium without FCS and incubated in medium without FCS for 20 hours to serum starve them. Analogue was prepared in medium without FCS at 20 μM and added to the plates and incubated for one hour. Final analogue concentration was therefore 10 μM. The cells were then stimulated by adding medium +20% FCS, to give a final FCS concentration of 10%. The cells were incubated until the control cells i.e. those with FCS and no compound, were just confluent (5 days). An MTT assay was performed, and difference in absorbance in analogue treated cells from the control was calculated using the formula: test/control*100−100. Results
The effect of test compounds on human umbilical vein smooth muscle cells (HUVSMC), was examined. Cells, tissue explants from a neonate (HRI—passage 2), were seeded into 96 well plates at 1×10^3 cells per well, and allowed to attach for 24 hours. They were then washed twice and incubated in medium without foetal calf serum (FCS) for 24-48 hours to serum-starve them. Test compounds were prepared in medium without FCS and added to the plates and incubated for one hour. Medium with FCS was added to give a final concentration of 10% and the plates incubated for 4-5 days until the controls were just confluent.

T1 sequence (P37231 238-503 limits assumed): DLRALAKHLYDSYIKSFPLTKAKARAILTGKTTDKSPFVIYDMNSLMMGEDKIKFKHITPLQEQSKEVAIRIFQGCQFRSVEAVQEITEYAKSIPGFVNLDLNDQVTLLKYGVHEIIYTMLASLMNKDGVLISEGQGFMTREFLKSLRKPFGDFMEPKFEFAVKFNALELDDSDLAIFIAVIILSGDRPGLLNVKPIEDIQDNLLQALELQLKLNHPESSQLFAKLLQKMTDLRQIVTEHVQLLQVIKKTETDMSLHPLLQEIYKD
T1 sequence (P04386 1-147 partner limits assumed): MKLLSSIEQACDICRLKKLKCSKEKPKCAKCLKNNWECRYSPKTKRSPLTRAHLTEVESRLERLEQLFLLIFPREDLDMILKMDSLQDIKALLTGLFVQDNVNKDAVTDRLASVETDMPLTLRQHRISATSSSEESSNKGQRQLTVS

IC50 [1] [µM] | IC50 [3] [µM] | IC50 [4] [µM] | EC50 [6] [µM] | PPARγ activation, increase in beta-lactamase activity over media only control [11] | Structure (SMILES) | mean change of LPS-induced NO synthesis [2] | toxicity to the MM200 melanoma cell line [3] | IC50 [5] [µM] | IC50 [7] [µM] | activity against CP70, HPAC and MM200 cell lines [8] | mean change of LPS-induced TXB2 synthesis [9] | mean change of LPS-induced PGE2 synthesis [10] | effect on proliferation of HUVSMCs induced by FCS [12]
32.2 | 8.9 ± 0.1 | 30.7 ± 22 | 20 | – | CCCN1COc2cc3c(cc2C1)C=C(c1ccc(O)cc1)CO3 [Compound 3, 4-(3-Propyl-2,3,4,8-tetrahydrochromeno[6,7-e][1,3]oxazin-7-yl)phenol] | greatest inhibition | selectively toxic | 4.8 | 56.2 ± 12.6 | – | – | – | –
6.83 | 14.6 | 8.6 | 24 | – | COc1ccc(C2=C(c3ccc(O)cc3)COc3cc4c(cc32)CN(Cc2ccc(Cl)cc2)CO4)cc1 [Compound 24, 4-(3-(4-Chlorobenzyl)-6-(4-methoxyphenyl)-2,3,4,8-tetrahydrochromeno[6,7-e][1,3]oxazin-7-yl)-phenol] | greatest inhibition | – | – | – | active | greatest inhibition | greatest inhibition | –
48.8 | 36.3 ± 6 | 9.98 ± 0.5 | 22.5 | PPARγ agonist activity | Oc1ccc(C2=Cc3cc4c(cc3OC2)OCN(c2ccccc2)C4)cc1 [Compound 7, 4-(3-Phenyl-2,3,4,8-tetrahydrochromeno[6,7-e][1,3]oxazin-7-yl)phenol] | greatest inhibition | – | 56.6 | 48.8 ± 12.2 | – | – | – | significantly inhibited the proliferation
